Data taken from US5556744A, “Methods and compositions for diagnosing and treating certain HIV infected patients” (The Trustees of the University of Pennsylvania, priority 1994, dated 1996).

What was measured:
[1] = tested on: maternal HIV+ sera (antibodies); test: RIA / ELISA binding of maternal HIV+ sera to gp120 and gp41 peptides (Example 3); parameters: species or system human
Procedure, shortened: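 Peptides were coated at 10 μg/ml in carbonate buffer pH 9.6 and blocked with 1% BSA. Sera at 1:50 and 1:500 were incubated overnight at 4°C and detected with ¹²⁵I anti-human IgG (RIA) or HRP/TMB at OD450 (ELISA). Specific binding was taken as peptide minus no-peptide wells, scored as a ratio to normal human serum.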

[2] = tested on: maternal sera (antibodies); test: ELISA peptide-binding of maternal sera (Example 6); parameters: species or system human; details: for Number of Non-Transmitters which bound to peptide / Percent of Non-Transmitters which bound to peptide: N = 12; for Number of Transmitters which bound to peptide / Percent of Transmitters which bound to peptide: N = 4
Procedure, shortened: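 Third-trimester maternal sera, from HIV-1 transmitting and non-transmitting mothers, were tested by ELISA against ~16-residue peptides spanning HIV-1 external and transmembrane glycoproteins. Each serum was run with at least 40 peptides, and values are the percentage of sera binding each peptide.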

[3] = Serum No. 1, Non-Transmission Group
[4] = Serum No. 2, Non-Transmission Group
[5] = Serum No. 3, Non-Transmission Group
[6] = Serum No. 4, Transmission Group
[7] = Serum No. 5, Transmission Group
[8] = Serum No. 6, Non-Transmission Group
[9] = Serum No. 7, Non-Transmission Group
[10] = Serum No. 8, Non-Transmission Group
[11] = Serum No. 9, Non-Transmission Group
[12] = Serum No. 10, Transmission Group
[13] = Serum No. 11, Non-Transmission Group
[14] = Serum No. 12, Non-Transmission Group
[15] = Serum No. 13, Transmission Group
[16] = Serum No. 14, Transmission Group
[17] = Serum No. 15, Transmission Group
[18] = Serum No. 16, Non-Transmission Group
[19] = Serum No. 17, Non-Transmission Group
[20] = Serum No. 18, Non-Transmission Group
[21] = Serum No. 19, Transmission Group
[22] = Serum No. 20, Non-Transmission Group

IGALFLGFGAAGST [Peptide 117]
Binding of maternal HIV+ serum to peptide (sera/NHS ratio) [1, 3]: - (specific OD450 or cpm of sera sample binding to peptide divided by the specific OD450 or cpm of NHS sample binding to peptide, which value is less than 2) | Binding of maternal HIV+ serum to peptide (sera/NHS ratio) [1, 4]: - (specific OD450 or cpm of sera sample binding to peptide divided by the specific OD450 or cpm of NHS sample binding to peptide, which value is less than 2) | Binding of maternal HIV+ serum to peptide (sera/NHS ratio) [1, 5]: - (specific OD450 or cpm of sera sample binding to peptide divided by the specific OD450 or cpm of NHS sample binding to peptide, which value is less than 2) | Binding of maternal HIV+ serum to peptide (sera/NHS ratio) [1, 6]: - (specific OD450 or cpm of sera sample binding to peptide divided by the specific OD450 or cpm of NHS sample binding to peptide, which value is less than 2) | Binding of maternal HIV+ serum to peptide (sera/NHS ratio) [1, 7]: - (specific OD450 or cpm of sera sample binding to peptide divided by the specific OD450 or cpm of NHS sample binding to peptide, which value is less than 2) | Binding of maternal HIV+ serum to peptide (sera/NHS ratio) [1, 8]: - (specific OD450 or cpm of sera sample binding to peptide divided by the specific OD450 or cpm of NHS sample binding to peptide, which value is less than 2) | Binding of maternal HIV+ serum to peptide (sera/NHS ratio) [1, 9]: - (specific OD450 or cpm of sera sample binding to peptide divided by the specific OD450 or cpm of NHS sample binding to peptide, which value is less than 2) | Binding of maternal HIV+ serum to peptide (sera/NHS ratio) [1, 10]: - (specific OD450 or cpm of sera sample binding to peptide divided by the specific OD450 or cpm of NHS sample binding to peptide, which value is less than 2) | Binding of maternal HIV+ serum to peptide (sera/NHS ratio) [1, 11]: - (specific OD450 or cpm of sera sample binding to peptide divided by the specific OD450 or cpm of NHS sample binding to peptide, which value is less than 2) | Binding of maternal HIV+ serum to peptide (sera/NHS ratio) [1, 12]: - (specific OD450 or cpm of sera sample binding to peptide divided by the specific OD450 or cpm of NHS sample binding to peptide, which value is less than 2) | Binding of maternal HIV+ serum to peptide (sera/NHS ratio) [1, 13]: - (specific OD450 or cpm of sera sample binding to peptide divided by the specific OD450 or cpm of NHS sample binding to peptide, which value is less than 2) | Binding of maternal HIV+ serum to peptide (sera/NHS ratio) [1, 14]: - (specific OD450 or cpm of sera sample binding to peptide divided by the specific OD450 or cpm of NHS sample binding to peptide, which value is less than 2) | Binding of maternal HIV+ serum to peptide (sera/NHS ratio) [1, 15]: - (specific OD450 or cpm of sera sample binding to peptide divided by the specific OD450 or cpm of NHS sample binding to peptide, which value is less than 2) | Binding of maternal HIV+ serum to peptide (sera/NHS ratio) [1, 16]: - (specific OD450 or cpm of sera sample binding to peptide divided by the specific OD450 or cpm of NHS sample binding to peptide, which value is less than 2) | Binding of maternal HIV+ serum to peptide (sera/NHS ratio) [1, 17]: - (specific OD450 or cpm of sera sample binding to peptide divided by the specific OD450 or cpm of NHS sample binding to peptide, which value is less than 2) | Binding of maternal HIV+ serum to peptide (sera/NHS ratio) [1, 18]: - (specific OD450 or cpm of sera sample binding to peptide divided by the specific OD450 or cpm of NHS sample binding to peptide, which value is less than 2) | Binding of maternal HIV+ serum to peptide (sera/NHS ratio) [1, 19]: - (specific OD450 or cpm of sera sample binding to peptide divided by the specific OD450 or cpm of NHS sample binding to peptide, which value is less than 2) | Binding of maternal HIV+ serum to peptide (sera/NHS ratio) [1, 20]: - (specific OD450 or cpm of sera sample binding to peptide divided by the specific OD450 or cpm of NHS sample binding to peptide, which value is less than 2) | Binding of maternal HIV+ serum to peptide (sera/NHS ratio) [1, 21]: - (specific OD450 or cpm of sera sample binding to peptide divided by the specific OD450 or cpm of NHS sample binding to peptide, which value is less than 2) | Binding of maternal HIV+ serum to peptide (sera/NHS ratio) [1, 22]: - (specific OD450 or cpm of sera sample binding to peptide divided by the specific OD450 or cpm of NHS sample binding to peptide, which value is less than 2) | Number of Non-Transmitters which bound to peptide [2]: 2 | Percent of Non-Transmitters which bound to peptide [2]: 16.7% | Number of Transmitters which bound to peptide [2]: 0 | Percent of Transmitters which bound to peptide [2]: 0%

NYTSLIHSLIEESQNQ [Peptide 41]
Binding of maternal HIV+ serum to peptide (sera/NHS ratio) [1, 3]: - (specific OD450 or cpm of sera sample binding to peptide divided by the specific OD450 or cpm of NHS sample binding to peptide, which value is less than 2) | Binding of maternal HIV+ serum to peptide (sera/NHS ratio) [1, 4]: - (specific OD450 or cpm of sera sample binding to peptide divided by the specific OD450 or cpm of NHS sample binding to peptide, which value is less than 2) | Binding of maternal HIV+ serum to peptide (sera/NHS ratio) [1, 5]: - (specific OD450 or cpm of sera sample binding to peptide divided by the specific OD450 or cpm of NHS sample binding to peptide, which value is less than 2) | Binding of maternal HIV+ serum to peptide (sera/NHS ratio) [1, 6]: - (specific OD450 or cpm of sera sample binding to peptide divided by the specific OD450 or cpm of NHS sample binding to peptide, which value is less than 2) | Binding of maternal HIV+ serum to peptide (sera/NHS ratio) [1, 7]: - (specific OD450 or cpm of sera sample binding to peptide divided by the specific OD450 or cpm of NHS sample binding to peptide, which value is less than 2) | Binding of maternal HIV+ serum to peptide (sera/NHS ratio) [1, 8]: - (specific OD450 or cpm of sera sample binding to peptide divided by the specific OD450 or cpm of NHS sample binding to peptide, which value is less than 2) | Binding of maternal HIV+ serum to peptide (sera/NHS ratio) [1, 9]: - (specific OD450 or cpm of sera sample binding to peptide divided by the specific OD450 or cpm of NHS sample binding to peptide, which value is less than 2) | Binding of maternal HIV+ serum to peptide (sera/NHS ratio) [1, 10]: - (specific OD450 or cpm of sera sample binding to peptide divided by the specific OD450 or cpm of NHS sample binding to peptide, which value is less than 2) | Binding of maternal HIV+ serum to peptide (sera/NHS ratio) [1, 11]: - (specific OD450 or cpm of sera sample binding to peptide divided by the specific OD450 or cpm of NHS sample binding to peptide, which value is less than 2) | Binding of maternal HIV+ serum to peptide (sera/NHS ratio) [1, 12]: - (specific OD450 or cpm of sera sample binding to peptide divided by the specific OD450 or cpm of NHS sample binding to peptide, which value is less than 2) | Binding of maternal HIV+ serum to peptide (sera/NHS ratio) [1, 13]: - (specific OD450 or cpm of sera sample binding to peptide divided by the specific OD450 or cpm of NHS sample binding to peptide, which value is less than 2) | Binding of maternal HIV+ serum to peptide (sera/NHS ratio) [1, 14]: - (specific OD450 or cpm of sera sample binding to peptide divided by the specific OD450 or cpm of NHS sample binding to peptide, which value is less than 2) | Binding of maternal HIV+ serum to peptide (sera/NHS ratio) [1, 15]: - (specific OD450 or cpm of sera sample binding to peptide divided by the specific OD450 or cpm of NHS sample binding to peptide, which value is less than 2) | Binding of maternal HIV+ serum to peptide (sera/NHS ratio) [1, 16]: - (specific OD450 or cpm of sera sample binding to peptide divided by the specific OD450 or cpm of NHS sample binding to peptide, which value is less than 2) | Binding of maternal HIV+ serum to peptide (sera/NHS ratio) [1, 17]: - (specific OD450 or cpm of sera sample binding to peptide divided by the specific OD450 or cpm of NHS sample binding to peptide, which value is less than 2) | Binding of maternal HIV+ serum to peptide (sera/NHS ratio) [1, 18]: - (specific OD450 or cpm of sera sample binding to peptide divided by the specific OD450 or cpm of NHS sample binding to peptide, which value is less than 2) | Binding of maternal HIV+ serum to peptide (sera/NHS ratio) [1, 19]: - (specific OD450 or cpm of sera sample binding to peptide divided by the specific OD450 or cpm of NHS sample binding to peptide, which value is less than 2) | Binding of maternal HIV+ serum to peptide (sera/NHS ratio) [1, 20]: - (specific OD450 or cpm of sera sample binding to peptide divided by the specific OD450 or cpm of NHS sample binding to peptide, which value is less than 2) | Binding of maternal HIV+ serum to peptide (sera/NHS ratio) [1, 21]: - (specific OD450 or cpm of sera sample binding to peptide divided by the specific OD450 or cpm of NHS sample binding to peptide, which value is less than 2) | Binding of maternal HIV+ serum to peptide (sera/NHS ratio) [1, 22]: - (specific OD450 or cpm of sera sample binding to peptide divided by the specific OD450 or cpm of NHS sample binding to peptide, which value is less than 2) | Number of Non-Transmitters which bound to peptide [2]: 0 | Percent of Non-Transmitters which bound to peptide [2]: 0% | Number of Transmitters which bound to peptide [2]: 0 | Percent of Transmitters which bound to peptide [2]: 0%
